Measured values reported in patent publication US10980813B2, “Antifungal composition” (SEED RESEARCH INSTITUTE CO., LTD., priority 2017, dated 2021).
≈ marks a conversion by molar mass, not a printed value.

Experiments:
Test in all cases: Antifungal activity, MIC by disc (diffusion) method
A. fumigatus = format: cell-based; details: Aspergillus fumigatus, YMG agar, 24 hr at 28° C., read-out: MIC (minimum inhibitory concentration) A. fumigatus
Protocol: (§1) Measurement Method of Antifungal Activity in Various Compounds
(§2) The minimum inhibitory concentration (MIC) was measured by a disc method (diffusion method). The disc method is one kind of the diffusion method, and is a method in which filter paper (disc) impregnated with an antifungal substance at a given concentration is placed on an agar medium (test plate) coated with a test bacterium and cultivated. The disc absorbs water in the medium, diffuses the antifungal substance and forms a given concentration gradient. As a result, the test bacterium forms a growth inhibition zone (circle) in the periphery of the disc, and the level of sensitivity to the antifungal substance is determined from the diameter of the inhibition circle.
(§3) Using the aforementioned method, MIC of various compounds was measured.
(§4) i: In a 100 mL flask, 20 mL of YMG or Mueller Hinton medium is produced.
(§5) ii: A loopful of the test bacterium is dissolved in the medium.
(§6) iii: The medium is cultured at 200 rpm for 24 hr in a rotary shaker set to 28° C.
(§7) i: In a 300 mL flask, 100 mL of YMG or Mueller Hinton agar medium (low melting point agar) is produced.
(§8) ii: After cooling to 37° C.-40° C., preculture medium (1 mL) is added and the mixture is agitated.
(§9) iii: The mixture is dispensed to a square petri dish (size: 100*150*17 mm) by 20 mL each.
(§10) iv: The dish is stood at room temperature until the agar is solidified.
(§11) i: The compound is diluted in ½ dilution series in 10 stages (timely changed according to compound), 50 μL of solution/pulp at each dilution stage is produced, the organic solvent is dried at room temperature and placed on a test plate.
(§12) ii: After culturing T. rubrum for 48 hr and other test bacteria for 24 hr at 28° C. in an incubator, the size of the inhibition circle was measured.
(§13) The medium composition for culture which was used for the aforementioned preculture is shown below.
(§14) [Medium Compositions for Preculture and Test Plate]
(§15) <<YMG Medium>>: For Fungus
(§16) Agar, powder 0.8% * added only when producing test plate

T. rubrum = format: cell-based; details: Trichophyton rubrum, YMG agar, 48 hr at 28° C., read-out: MIC (minimum inhibitory concentration) T. rubrum
Protocol: as §1, §2, §3, §4, §5, §6, §7, §8, §9, §10, §11, §12, §13, §14, §15, §16

T. mentagrophytes = format: cell-based; details: Trichophyton mentagrophytes, YMG agar, 24 hr at 28° C., read-out: MIC (minimum inhibitory concentration) T. mentagrophytes
Protocol: as §1, §2, §3, §4, §5, §6, §7, §8, §9, §10, §11, §12, §13, §14, §15, §16

Saccharomyces = format: cell-based; details: YMG agar, 24 hr at 28° C., read-out: MIC (minimum inhibitory concentration) Saccharomyces
Protocol: as §1, §2, §3, §4, §5, §6, §7, §8, §9, §10, §11, §12, §13, §14, §15, §16

C. parapsilosis = format: cell-based, Candida parapsilosis; details: Lodderomyces parapsilosis, YMG agar, 24 hr at 28° C., read-out: MIC (minimum inhibitory concentration) C. parapsilosis
Protocol: as §1, §2, §3, §4, §5, §6, §7, §8, §9, §10, §11, §12, §13, §14, §15, §16

MIC (A. fumigatus)	MIC (T. rubrum)	MIC (T. mentagrophytes)	MIC (Saccharomyces)	MIC (C. parapsilosis)	Structure (SMILES)
8 µg/mL (≈ 46.2 µM)	2 µg/mL (≈ 11.6 µM)	2 µg/mL (≈ 11.6 µM)	8 µg/mL (≈ 46.2 µM)	8 µg/mL (≈ 46.2 µM)	O=S1(=O)N2OC2c2nccn21 (stereo not drawn) [II-5a]
8 µg/mL (≈ 31.7 µM)	2 µg/mL (≈ 7.93 µM)	2 µg/mL (≈ 7.93 µM)	8 µg/mL (≈ 31.7 µM)	8 µg/mL (≈ 31.7 µM)	CC1=C(C)C2(c3ccccc3)ON2S(=O)(=O)N1 (stereo not drawn) [II-2d]
16 µg/mL (≈ 102 µM)	4 µg/mL (≈ 25.6 µM)	4 µg/mL (≈ 25.6 µM)	16 µg/mL (≈ 102 µM)	16 µg/mL (≈ 102 µM)	O=S1(=O)N=Cc2cccn21 [I-5b]
16 µg/mL (≈ 109 µM)	4 µg/mL (≈ 27.4 µM)	4 µg/mL (≈ 27.4 µM)	16 µg/mL (≈ 109 µM)	16 µg/mL (≈ 109 µM)	CC1=NS(=O)(=O)N=C1C [I-4b]
4 µg/mL (≈ 24.2 µM)	2 µg/mL (≈ 12.1 µM)	2 µg/mL (≈ 12.1 µM)	4 µg/mL (≈ 24.2 µM)	4 µg/mL (≈ 24.2 µM)	CC1OS(=O)(=O)N2OC12C (stereo not drawn) [II-3a]
4 µg/mL (≈ 14.4 µM)	1 µg/mL (≈ 3.6 µM)	1 µg/mL (≈ 3.6 µM)	4 µg/mL (≈ 14.4 µM)	4 µg/mL (≈ 14.4 µM)	O=S1(=O)Oc2ccc(Br)cc2C2ON21 (stereo not drawn) [II-1c]
4 µg/mL (≈ 22.6 µM)	2 µg/mL (≈ 11.3 µM)	2 µg/mL (≈ 11.3 µM)	4 µg/mL (≈ 22.6 µM)	4 µg/mL (≈ 22.6 µM)	CCC1=NS(=O)(=O)OC1CC (stereo not drawn) [I-3b]
8 µg/mL (≈ 40.6 µM)	2 µg/mL (≈ 10.1 µM)	2 µg/mL (≈ 10.1 µM)	8 µg/mL (≈ 40.6 µM)	8 µg/mL (≈ 40.6 µM)	O=S1(=O)N=C(c2ccccc2)CO1 [I-3c]
16 µg/mL (≈ 90.8 µM)	2 µg/mL (≈ 11.4 µM)	2 µg/mL (≈ 11.4 µM)	16 µg/mL (≈ 90.8 µM)	16 µg/mL (≈ 90.8 µM)	CC1=CC2(C)ON2S(=O)(=O)N1 (stereo not drawn) [II-2b]
8 µg/mL (≈ 41.8 µM)	2 µg/mL (≈ 10.5 µM)	2 µg/mL (≈ 10.5 µM)	8 µg/mL (≈ 41.8 µM)	8 µg/mL (≈ 41.8 µM)	CC1=C(C)C2(C)ON2S(=O)(=O)O1 (stereo not drawn) [II-2a]
4 µg/mL (≈ 18.4 µM)	1 µg/mL (≈ 4.6 µM)	1 µg/mL (≈ 4.6 µM)	4 µg/mL (≈ 18.4 µM)	4 µg/mL (≈ 18.4 µM)	O=S1(=O)Oc2ccc(F)cc2C2ON21 (stereo not drawn) [II-1a]
4 µg/mL (≈ 15.9 µM)	1 µg/mL (≈ 3.96 µM)	1 µg/mL (≈ 3.96 µM)	4 µg/mL (≈ 15.9 µM)	4 µg/mL (≈ 15.9 µM)	O=S1(=O)N=CC2=COc3ccc(F)cc3C2=N1 [I-6b]
8 µg/mL (≈ 33.9 µM)	2 µg/mL (≈ 8.46 µM)	2 µg/mL (≈ 8.46 µM)	8 µg/mL (≈ 33.9 µM)	8 µg/mL (≈ 33.9 µM)	CC1=C(C)C(c2ccccc2)=NS(=O)(=O)N1 [I-2d]
16 µg/mL (≈ 98.7 µM)	4 µg/mL (≈ 24.7 µM)	4 µg/mL (≈ 24.7 µM)	16 µg/mL (≈ 98.7 µM)	16 µg/mL (≈ 98.7 µM)	CC1=NS(=O)(=O)N2OC12C (stereo not drawn) [II-4b]
4 µg/mL (≈ 16.6 µM)	1 µg/mL (≈ 4.15 µM)	1 µg/mL (≈ 4.15 µM)	4 µg/mL (≈ 16.6 µM)	4 µg/mL (≈ 16.6 µM)	COC(=O)c1ccc2c(c1)C=NS(=O)(=O)O2 [I-1f]
8 µg/mL (≈ 40.6 µM)	2 µg/mL (≈ 10.1 µM)	2 µg/mL (≈ 10.1 µM)	8 µg/mL (≈ 40.6 µM)	8 µg/mL (≈ 40.6 µM)	CC1=NS(=O)(=O)Oc2ccccc21 [I-1j]
8 µg/mL (≈ 31.2 µM)	2 µg/mL (≈ 7.8 µM)	2 µg/mL (≈ 7.8 µM)	8 µg/mL (≈ 31.2 µM)	8 µg/mL (≈ 31.2 µM)	O=S1(=O)N=C(CCc2ccc(F)cc2)C2ON21 (stereo not drawn) [II-4c]
4 µg/mL (≈ 18.4 µM)	1 µg/mL (≈ 4.59 µM)	1 µg/mL (≈ 4.59 µM)	4 µg/mL (≈ 18.4 µM)	4 µg/mL (≈ 18.4 µM)	O=S1(=O)N=Cc2cc(Cl)ccc2O1 [I-1b]
8 µg/mL (≈ 36 µM)	2 µg/mL (≈ 9 µM)	2 µg/mL (≈ 9 µM)	8 µg/mL (≈ 36 µM)	8 µg/mL (≈ 36 µM)	CC1=CC(c2ccccc2)=NS(=O)(=O)N1 [I-2c]
4 µg/mL (≈ 17.5 µM)	1 µg/mL (≈ 4.38 µM)	1 µg/mL (≈ 4.38 µM)	4 µg/mL (≈ 17.5 µM)	4 µg/mL (≈ 17.5 µM)	O=[N+]([O-])c1ccc2c(c1)C=NS(=O)(=O)O2 [I-1e]
8 µg/mL (≈ 54 µM)	2 µg/mL (≈ 13.5 µM)	2 µg/mL (≈ 13.5 µM)	8 µg/mL (≈ 54 µM)	8 µg/mL (≈ 54 µM)	CC1=NS(=O)(=O)N2OC12 (stereo not drawn) [II-4a]
8 µg/mL (≈ 45.7 µM)	2 µg/mL (≈ 11.4 µM)	2 µg/mL (≈ 11.4 µM)	8 µg/mL (≈ 45.7 µM)	8 µg/mL (≈ 45.7 µM)	CC1=NS(=O)(=O)OC(C)=C1C [I-2a]
8 µg/mL (≈ 50.9 µM)	2 µg/mL (≈ 12.7 µM)	2 µg/mL (≈ 12.7 µM)	8 µg/mL (≈ 50.9 µM)	8 µg/mL (≈ 50.9 µM)	O=S1(=O)N=Cc2nccn21 [I-5a]
4 µg/mL (≈ 26.8 µM)	2 µg/mL (≈ 13.4 µM)	2 µg/mL (≈ 13.4 µM)	4 µg/mL (≈ 26.8 µM)	4 µg/mL (≈ 26.8 µM)	CC1=NS(=O)(=O)OC1C (stereo not drawn) [I-3a]
